# Data taken from article PMC11224111, “Optimizing the pharmacokinetics of an ^211At-labeled RGD peptide with an albumin-binding moiety via the administration of an albumin-binding inhibitor” (European Journal of Nuclear Medicine and Molecular Imaging, 2024).
# Marks after values point to notes of the source that are not given here.
# Test: Biodistribution of [^211At]1 and [^125I]2 in normal mice with ibuprofen or IPBA as albumin-binding inhibitor
# Conditions: 4 h after administration
# Experimental: To evaluate the effects of albumin-binding inhibitors in normal mice, [^211At]1 (37 kBq) and [^125I]2 (37 kBq) were intravenously coadministered. […] The total blood albumin (1.1 µmol) in normal mice was calculated from the albumin concentration (3.0 g/dL ≈ 455 µM) in blood, which was informed from Japan SLC, Inc., total blood volume (2.5 mL) as 8% of body weight, and the molecular weight of albumin as 66,000 g/mol. […]
# Table S1. Biodistribution of radioactivity 4 h after administration of [^211At]1 and [^125I]2 in normal mice.
# [1] = IPBA 10 eq at 1 h postinjection
# [2] = ibuprofen 10 eq at 1 h postinjection
substance,measurement,setting,value
Ga-DOTA-K([^211At]APBA)-c(RGDfK) [[^211At]1],"Radioactivity, Blood",IPBA 2 eq at 1 h postinjection,"8.33 (0.29)^ a, b % injected activity per gram"
same,"Radioactivity, Bone",IPBA 2 eq at 1 h postinjection,1.35 (0.06)^ a % injected activity per gram
same,"Radioactivity, Brain",IPBA 2 eq at 1 h postinjection,0.24 (0.04)^ a % injected activity per gram
same,"Radioactivity, Heart",IPBA 2 eq at 1 h postinjection,"2.90 (0.09) ^a, b % injected activity per gram"
same,"Radioactivity, Kidney",IPBA 2 eq at 1 h postinjection,3.36 (0.20) % injected activity per gram
same,"Radioactivity, L. intestine",IPBA 2 eq at 1 h postinjection,1.53 (0.39) % injected activity per gram
same,"Radioactivity, Liver",IPBA 2 eq at 1 h postinjection,1.68 (0.15)^ a % injected activity per gram
same,"Radioactivity, Lung",IPBA 2 eq at 1 h postinjection,"4.96 (0.40)^ a, b % injected activity per gram"
same,"Radioactivity, Muscle",IPBA 2 eq at 1 h postinjection,1.16 (0.09) % injected activity per gram
same,"Radioactivity, Neck",IPBA 2 eq at 1 h postinjection,0.23 (0.07)^ a % injected activity
same,"Radioactivity, Pancreas",IPBA 2 eq at 1 h postinjection,"1.55 (0.15)^ a, b % injected activity per gram"
same,"Radioactivity, S. intestine",IPBA 2 eq at 1 h postinjection,1.47 (0.05) % injected activity per gram
same,"Radioactivity, Spleen",IPBA 2 eq at 1 h postinjection,1.54 (0.18) % injected activity per gram
same,"Radioactivity, Stomach",IPBA 2 eq at 1 h postinjection,1.84 (0.32) % injected activity
same,"Radioactivity, Blood",IPBA 5 eq at 1 h postinjection,"3.46 (0.33)^ a, b, c % injected activity per gram"
same,"Radioactivity, Bone",IPBA 5 eq at 1 h postinjection,"0.95 (0.08)^ a, b % injected activity per gram"
same,"Radioactivity, Brain",IPBA 5 eq at 1 h postinjection,0.16 (0.01)^ a % injected activity per gram
same,"Radioactivity, Heart",IPBA 5 eq at 1 h postinjection,"1.38 (0.13)^ a, b, c % injected activity per gram"
same,"Radioactivity, Kidney",IPBA 5 eq at 1 h postinjection,3.67 (0.10) ^b % injected activity per gram
same,"Radioactivity, L. intestine",IPBA 5 eq at 1 h postinjection,0.84 (0.22) ^b % injected activity per gram
same,"Radioactivity, Liver",IPBA 5 eq at 1 h postinjection,"1.35 (0.16)^ a, b, c % injected activity per gram"
same,"Radioactivity, Lung",IPBA 5 eq at 1 h postinjection,"2.84 (0.27)^ a, b, c % injected activity per gram"
same,"Radioactivity, Muscle",IPBA 5 eq at 1 h postinjection,"0.62 (0.04)^ a, b, c % injected activity per gram"
same,"Radioactivity, Neck",IPBA 5 eq at 1 h postinjection,"0.08 (0.02)^ a, b % injected activity"
same,"Radioactivity, Pancreas",IPBA 5 eq at 1 h postinjection,"1.03 (0.15)^ a, b, c % injected activity per gram"
same,"Radioactivity, S. intestine",IPBA 5 eq at 1 h postinjection,1.35 (0.13) % injected activity per gram
same,"Radioactivity, Spleen",IPBA 5 eq at 1 h postinjection,1.19 (0.73)^ a % injected activity per gram
same,"Radioactivity, Stomach",IPBA 5 eq at 1 h postinjection,"1.45 (0.45)^ a, b % injected activity"
same,"Radioactivity, Blood",[1],"1.56 (0.20)^ a, b, c, d % injected activity per gram"
same,"Radioactivity, Bone",[1],"0.98 (0.12)^ a, b, c % injected activity per gram"
same,"Radioactivity, Brain",[1],0.14 (0.02)^ a % injected activity per gram
same,"Radioactivity, Heart",[1],"0.78 (0.10)^ a, b, c, d % injected activity per gram"
same,"Radioactivity, Kidney",[1],3.77 (0.50)^ b % injected activity per gram
same,"Radioactivity, L. intestine",[1],0.88 (0.27)^ b % injected activity per gram
same,"Radioactivity, Liver",[1],"0.80 (0.07)^ a, b, c % injected activity per gram"
same,"Radioactivity, Lung",[1],"1.88 (0.12)^ a, b, c % injected activity per gram"
same,"Radioactivity, Muscle",[1],"0.42 (0.03)^ a, b, c, d % injected activity per gram"
same,"Radioactivity, Neck",[1],"0.03 (0.02)^ b, c, d % injected activity"
same,"Radioactivity, Pancreas",[1],"0.66 (0.17)^ a, b, c, d % injected activity per gram"
same,"Radioactivity, S. intestine",[1],"1.14 (0.08)^ a, b, d % injected activity per gram"
same,"Radioactivity, Spleen",[1],1.22 (0.17)^ a % injected activity per gram
same,"Radioactivity, Stomach",[1],1.30 (0.20)^ d % injected activity
same,"Radioactivity, Blood",[2],10.82 (0.58) ^a % injected activity per gram
same,"Radioactivity, Bone",[2],1.57 (0.18)^ a % injected activity per gram
same,"Radioactivity, Brain",[2],0.26 (0.03) % injected activity per gram
same,"Radioactivity, Heart",[2],3.49 (0.36) % injected activity per gram
same,"Radioactivity, Kidney",[2],3.03 (0.24) % injected activity per gram
same,"Radioactivity, L. intestine",[2],2.32 (0.57) % injected activity per gram
same,"Radioactivity, Liver",[2],1.87 (0.31)^ a % injected activity per gram
same,"Radioactivity, Lung",[2],6.44 (1.14) % injected activity per gram
same,"Radioactivity, Muscle",[2],1.28 (0.15) % injected activity per gram
same,"Radioactivity, Neck",[2],0.18 (0.03)^ a % injected activity
same,"Radioactivity, Pancreas",[2],1.85 (0.12) % injected activity per gram
same,"Radioactivity, S. intestine",[2],1.58 (0.15) % injected activity per gram
same,"Radioactivity, Spleen",[2],1.47 (0.29)^ a % injected activity per gram
same,"Radioactivity, Stomach",[2],1.57 (0.21) % injected activity
same,"Radioactivity, Blood",vehicle at 1 h postinjection,14.03 (0.79) % injected activity per gram
same,"Radioactivity, Bone",vehicle at 1 h postinjection,1.88 (0.10) % injected activity per gram
same,"Radioactivity, Brain",vehicle at 1 h postinjection,0.37 (0.11) % injected activity per gram
same,"Radioactivity, Heart",vehicle at 1 h postinjection,3.83 (0.30) % injected activity per gram
same,"Radioactivity, Kidney",vehicle at 1 h postinjection,3.19 (0.20) % injected activity per gram
same,"Radioactivity, L. intestine",vehicle at 1 h postinjection,1.52 (0.35) % injected activity per gram
same,"Radioactivity, Liver",vehicle at 1 h postinjection,2.51 (0.20) % injected activity per gram
same,"Radioactivity, Lung",vehicle at 1 h postinjection,7.69 (0.63) % injected activity per gram
same,"Radioactivity, Muscle",vehicle at 1 h postinjection,1.26 (0.09) % injected activity per gram
same,"Radioactivity, Neck",vehicle at 1 h postinjection,0.05 (0.01) % injected activity
same,"Radioactivity, Pancreas",vehicle at 1 h postinjection,1.88 (0.10) % injected activity per gram
same,"Radioactivity, S. intestine",vehicle at 1 h postinjection,1.85 (0.16) % injected activity per gram
same,"Radioactivity, Spleen",vehicle at 1 h postinjection,2.02 (0.26) % injected activity per gram
same,"Radioactivity, Stomach",vehicle at 1 h postinjection,0.80 (0.10) % injected activity
